Assay results as given in publication PMC4819196, “A novel fibroblast growth factor receptor 1 inhibitor protects against cartilage degradation in a murine model of osteoarthritis” (Scientific Reports, 2016).

Biological target: fibroblast growth factor receptor 1 (FGFR1) (Homo sapiens, UniProt P11362)
Assay: cell-free kinase inhibition, caliper mobility shift assay, ATP at Km ([…])
Format: biochemical

Chain of fibroblast growth factor receptor 1 (FGFR1) (P11362 22-822): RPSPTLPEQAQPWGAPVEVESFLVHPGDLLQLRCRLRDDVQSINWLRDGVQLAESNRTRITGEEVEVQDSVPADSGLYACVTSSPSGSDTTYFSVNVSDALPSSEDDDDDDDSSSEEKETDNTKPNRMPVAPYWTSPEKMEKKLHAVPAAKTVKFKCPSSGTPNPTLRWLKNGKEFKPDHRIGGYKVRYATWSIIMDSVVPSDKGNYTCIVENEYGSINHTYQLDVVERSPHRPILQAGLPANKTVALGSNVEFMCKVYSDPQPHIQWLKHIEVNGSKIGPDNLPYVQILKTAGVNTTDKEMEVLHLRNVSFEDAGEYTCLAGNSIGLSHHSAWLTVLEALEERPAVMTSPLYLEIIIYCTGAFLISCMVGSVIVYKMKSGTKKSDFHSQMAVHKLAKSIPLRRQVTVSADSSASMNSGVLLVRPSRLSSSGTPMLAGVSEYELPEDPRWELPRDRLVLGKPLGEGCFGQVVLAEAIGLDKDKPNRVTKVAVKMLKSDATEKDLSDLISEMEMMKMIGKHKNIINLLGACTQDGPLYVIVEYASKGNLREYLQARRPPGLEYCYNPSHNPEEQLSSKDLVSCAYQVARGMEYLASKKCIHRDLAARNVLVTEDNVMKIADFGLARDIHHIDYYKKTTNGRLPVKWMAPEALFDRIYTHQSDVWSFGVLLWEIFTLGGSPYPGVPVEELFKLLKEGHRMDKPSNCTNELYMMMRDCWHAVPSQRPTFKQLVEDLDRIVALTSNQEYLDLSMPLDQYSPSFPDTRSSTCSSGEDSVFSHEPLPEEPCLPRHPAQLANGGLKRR

Work on CCOc1ccc(/C=C2\CC[C@@]3(C2=O)[C@@H](c2ccc(OCC)cc2)CN(C)[C@]32C(=O)c3cccc4cccc2c34)cc1 [G141] yielded an IC50 of 2700 ± 540 nM.
